In US20080063628A1, “METHODS TO PROMOTE CELL DIFFERENTIATION” (priority 2006, published 2008):

System: amniotic fluid-derived cell line
Experiment: Two high dose trichostatin A treatments (first 48 h), gene expression by RT-PCR (Example 9);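 on Gata-1 RT-PCR detection cycle: lower cycle number means higher gene expression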;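 on HNF-3 beta RT-PCR detection cycle: lower cycle number means higher gene expression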
Type: cell-based, human
Details: for Gata1 gene expression / HNF-3 beta gene expression / Insulin gene expression / Pdx-1 gene expression / sox17 gene expression: 1.25 μM 0-48 h + 96-120 h
Method: Several cell lines obtained from different amniotic fluid specimens (see Example 14) and pancreas donors (see Example 13) were tested with similar results. Two lines at similar passage number but derived from different amniotic fluid specimens are shown in Table VIII-A and Table VIII-B for this example. One of these cell lines was also used in examples 2 and 4 above. In addition, this example also contains comparison data in Table VIII-C and Table VIII-D for a single pancreatic-derived stromal line grown to early and late passage number.
Amniotic fluid derived cells or pancreatic-derived stromal cells were seeded into 24-well tissue culture plates at a density of 5000/cm^2 and cultured in AMNIOMAX (Invitrogen) or DMEM with 10% FBS respectively under standard cell culture conditions until confluent. After reaching confluence, amniotic fluid derived cells were treated at time 0 hours with a dose of 1.25 μM trichostatin A, and pancreatic-derived stromal cells were treated with a dose of 5.0 μM trichostatin A solubilized in DMSO and medium. At time 48 hours, cell cultures underwent a complete medium change to remove all traces of trichostatin A. At time 96 hours, cell cultures were re-fed with fresh medium and received a second dose of trichostatin A at the same concentration as used previously. At time 120 hours, cell cultures again underwent a complete medium change and were cultured for an additional 24 hours or […] total incubation time. Samples were taken for RT-PCR at the times indicated in Table IX-A to D. RNA samples were obtained daily from the start of the experiment. Culture medium was removed, and cells were washed with PBS then collected in RLT with β-mercaptoethanol (Qiagen). RNA was purified using the RNeasy Mini Kit (Qiagen) and RNA quantity and quality was determined using a spectrophotometer. cDNA was made using the iScript cDNA synthesis kit (BioRad). Human pancreas cDNA was included as a control. Results were normalized against GAPDH expression levels.
[…] Samples of 20 ng cDNA was used in each Real-Time PCR reaction. RT-PCR was performed on the Applied Biosystems 7500, according to the methods described in Example 15. The data were analyzed using the accompanying software.
Real-time PCR amplifcation and quantitative analysis. Unless otherwise stated, all reagents were purchased from Applied Biosystems. Real-time PCR reactions were performed using the ABI PRISM™ 7500 Sequence Detection System. TAQMAN™ FAST UNIVERSAL PCR MASTER MIX™ (ABI, CA) was used with 20 ng of reverse transcribed RNA in a total reaction volume of 20 μl. Each cDNA sample was run in duplicate to allow correction of pipetting errors. Primers and FAM-labeled TAQMAN™ probes were used at concentrations of 200 nM. The level of expression for each target gene was normalized using the pre-developed Applied Biosystem's human glyceraldehyde-3-phosphate dehydrogenase (GAPDH) endogenous control kit. Primers and probes were designed using either ABI PRISM PRIMER EXPRESS™ software or a pre-developed ABI gene analysis kit. For each gene, either one of the primers or the probe were designed to be exon-boundary spanning. This eliminated the possibility of the primers/probe binding to any genomic DNA present. The primer and probe sets are listed as follows: Pdx-1 (Hs00426216), Insulin (Hs00355773), glucagon (Hs00174967), and FoxA2 (HNF 3-beta) (Hs00232764). The remaining primers were designed using the PRIMERS program (ABI, CA). After an initial 95° C. incubation for 20 sec, samples were cycled 40 times in two stages: a denaturation step at 95° C. for 3 sec, followed by an annealing/extension step at 60° C. for 30 sec.
For each primer/probe set, a cycle time value was determined as the cycle number at which the fluorescence intensity of the PCR reaction reached a specific value in the middle of the exponential region of amplification. […]

[1] = 1.25 μM, following the addition

`CC(/C=C/C(=O)NO)=C\[C@@H](C)C(=O)c1ccc(N(C)C)cc1` [trichostatin A] was tested, and the Gata1 gene expression (24 hrs) was “+ (detectable between 35 and 40 cycles by RT-PCR)”, the “HNF-3 beta gene expression” value (24 hrs) was “+++ (detectable at less than 35 cycles by RT-PCR with SE less than 0.9)” and the Insulin gene expression (24 hrs) was “nd (not detectable at >40 cycles by RT-PCR)”. For the same molecule, the Pdx-1 gene expression (24 hrs) was “+++ (detectable at less than 35 cycles by RT-PCR with SE less than 0.9)”, the sox17 gene expression (24 hrs) was “+++ (detectable at less than 35 cycles by RT-PCR with SE less than 0.9)” and the Gata1 gene expression (48 hrs) was “nd (not detectable at >40 cycles by RT-PCR)”. The “HNF-3 beta gene expression” value (48 hrs) was “+++ (detectable at less than 35 cycles by RT-PCR with SE less than 0.9)”, the Insulin gene expression (48 hrs) was “nd (not detectable at >40 cycles by RT-PCR)” and the Pdx-1 gene expression (48 hrs) was “+++ (detectable at less than 35 cycles by RT-PCR with SE less than 0.9)”. The sox17 gene expression (48 hrs) was “+++ (detectable at less than 35 cycles by RT-PCR with SE less than 0.9)”, the Gata1 gene expression (72 hrs) was “nd (not detectable at >40 cycles by RT-PCR)” and the “HNF-3 beta gene expression” value (72 hrs) was “+ (detectable between 35 and 40 cycles by RT-PCR)”. For the same molecule, the Insulin gene expression (72 hrs) was “nd (not detectable at >40 cycles by RT-PCR)”, the Pdx-1 gene expression (72 hrs) was “nd (not detectable at >40 cycles by RT-PCR)” and the sox17 gene expression (72 hrs) was “+++ (detectable at less than 35 cycles by RT-PCR with SE less than 0.9)”. The Gata1 gene expression (96 hrs) was “nd (not detectable at >40 cycles by RT-PCR)”, the “HNF-3 beta gene expression” value (96 hrs) was “nd (not detectable at >40 cycles by RT-PCR)” and the Insulin gene expression (96 hrs) was “nd (not detectable at >40 cycles by RT-PCR)”. The Pdx-1 gene expression (96 hrs) was “nd (not detectable at >40 cycles by RT-PCR)”, the sox17 gene expression (96 hrs) was “+++ (detectable at less than 35 cycles by RT-PCR with SE less than 0.9)” and the Gata1 gene expression (120 hrs) was “nd (not detectable at >40 cycles by RT-PCR)”. For the same molecule, the “HNF-3 beta gene expression” value (120 hrs) was “+ (detectable between 35 and 40 cycles by RT-PCR)”, the Insulin gene expression (120 hrs) was “nd (not detectable at >40 cycles by RT-PCR)” and the Pdx-1 gene expression (120 hrs) was “+ (detectable between 35 and 40 cycles by RT-PCR)”. The sox17 gene expression (120 hrs) was “+++ (detectable at less than 35 cycles by RT-PCR with SE less than 0.9)”, the “Pdx-1 RT-PCR detection cycle” value (1.25 μM, after the second treatment) was 37 cycles and the “Gata-1 RT-PCR detection cycle” value (1.25 μM, following first treatment) was 37 cycles. For the same molecule, the “HNF-3 beta RT-PCR detection cycle” value [1] was 31 cycles, the “Pdx-1 RT-PCR detection cycle” value [1] was 32 cycles and the “HNF-3 beta RT-PCR detection cycle” value (1.25 μM, following the second treatment) was 35 cycles.
